{
  "source": "patent US20260325464A1",
  "about": "“COMPOSITIONS FOR MODULATING THE EXPRESSION OF AQUAPORINS IN NEURODEGENERATIVE DISORDERS” (priority 2023, published 2026)",
  "type_in_all_cases": "in vivo, rat",
  "key": {"IL-1β": {"test_system": "IL-1β", "experiment": "Inflammatory marker IL-1β (ELISA), AlCl3 Alzheimer's model", "conditions": "for IL-1β: p.o. + AlCl3 (100 mg/kg, i.p.), n = 6", "excerpt": "(§1) The inflammatory markers Fibrinogen, IL-1β were estimated using ELISA kit (Krishgen Biosystems, India)."}, "Apolipoprotein E": {"test_system": "Apolipoprotein E", "experiment": "Apolipoprotein E level in plasma (ELISA), AlCl3 Alzheimer's model", "conditions": "for Apolipoprotein E: p.o. + AlCl3 (100 mg/kg, i.p.), plasma, Mean ± SEM, n = 6", "excerpt": "(§2) The levels of Tau, β-amyloid (1-42) and Apolipoprotein E were estimated. using ELISA kit (Krishgen Biosystems, India). All the protein biomarkers of AD were elevated in the AD control group."}, "[1]": {"test_system": "frontal cortex and hippocampus", "experiment": "Brain histopathology (H&E), AlCl3 Alzheimer's model", "conditions": "5 mg/kg, 10 mg/kg and 20 mg/kg", "excerpt": "The brain histopathology was done for all the experimental groups. The brain tissue was fixed in 10% buffered neutral formalin solution. The tissue was embedded in paraffin, sectioned at […] stained with hematoxylin and eosin (H&E). The sections were examined under light microscope to study the architecture of the brain tissue, and then photomicrographs were taken (Fischer A H, Jacobson K A, Rose J, Zeller R. Hematoxylin and eosin staining of tissue and cell sections. CSH Protoc. 2008:1;pdb.prot4986. doi: 10.1101/pdb.prot4986)."}, "Tau": {"test_system": "Tau", "experiment": "Tau level in plasma (ELISA), AlCl3 Alzheimer's model", "conditions": "5, 10 and 20 mg/kg, FIG. 2", "excerpt": "as §2"}, "Parkinson's disease [2]": {"test_system": "Parkinson's disease", "experiment": "Y-maze test in rats with reserpine-induced Parkinson's disease", "conditions": "for No of arm entries / Spontaneous alterations (%): p.o. + Reserpine (4 mg/kg, s.c.), Y maze, Mean ± SEM, n = 6", "excerpt": "(§3) The induction of Parkinson's disease and measurement of other parameters were done as per the reported protocol (Santos et al., Cognitive, motor and tyrosine hydroxylase temporal impairment in a model of parkinsonism induced by reserpine. Behav Brain Res. 2013; 253:68-77 and Shishehbore et al. A novel kinetic spectrophotometric method for the determination of dopamine in biological and pharmaceutical samples. J Chem. 2013; 2013:1-6). Induction of Parkinson's disease was done by administering Resperine, which inhibits the monoamine vesicular transporters, thus decreasing the levels of monoamine neurotransmitters in the brain. Following pretreatment for 14 days with Gingerenone A, the rat groups received subcutaneous injections of reserpine (4 mg/kg) for the final five days of the treatment regimen. Resperine (5 mg) was dissolved in 1 ml of 1% acetic acid and then diluted tenfold with distilled water to achieve a final concentration of 500 μg/ml. The normal control group received saline with 1% acetic acid […], administered from day 10 to day 14. Thirty minutes following the administration of reserpine on the 14th day, behavioural assessments were conducted using the Open Field test, Y Maze, and Catalepsy tests to evaluate changes. Rats administered with Carbidopa, a known drug for the management of Parkinson's disease was also used for comparison. Upon completion of the study, brains were harvested for biochemical analyses and histopathological studies. The experimental group is depicted in table 10.\nY-maze test—In the Y-maze test, spontaneous alterations serve as an indicator of working short-term memory.\nThe maze consisted of a triangular central area with three equilateral arms labeled A, B, and C, each measuring 35 cm in length, 25 cm in height, and 10 cm in width. During the test, each rat was placed in the central area, facing one of the arms. An entry was scored when all four paws of the rat entered an arm. Spontaneous alterations in behavior were defined as consecutive entries into different arms (e.g., ABC, BCA, or CAB, but not CAC). The maximum number of spontaneous alterations ([…]) and the percentage of spontaneous alterations (actual number of alterations divided by the maximum alterations, multiplied by 100) were calculated for each rat (Kraeuter et al., The Y-Maze for Assessment of Spatial Working and Reference Memory in Mice. Methods Mol Biol. 2019; 1916:105-111)."}, "Fibrinogen": {"test_system": "Fibrinogen", "experiment": "Inflammatory marker fibrinogen (ELISA), AlCl3 Alzheimer's model", "conditions": "for Fibrinogen: p.o. + AlCl3 (100 mg/kg, i.p.), Mean ± SEM, n = 6", "excerpt": "as §1"}, "Parkinson's disease [3]": {"test_system": "Parkinson's disease", "experiment": "Open field test in rats with reserpine-induced Parkinson's disease", "conditions": "for Freezing / Number of central explorations / Number of squares crossed: p.o. + Reserpine (4 mg/kg, s.c.), open field, Mean ± SEM, n = 6", "excerpt": "as §3\nOpen filed test—The test was conducted as per protocol described by Saleem et al., Pharmacological Potential of the Standardized Methanolic Extract of Prunus armeniaca L. in the Haloperidol-Induced Parkinsonism Rat Model. Evid Based Complement Alternat Med. 2022:29; 3697522. doi: 10.1155/2022/3697522. This test was conducted to assess the locomotor and exploratory behaviors of the experimental rats. A square-shaped wooden box measuring 100 cm in width, 100 cm in […], and 45 cm in height was constructed using plywood material, painted white, with a black-lined floor divided into 25 blocks. The rats were placed in the center of the field for a duration of 5 minutes and allowed to explore the box freely. The number of squares crossed, both centrally and horizontally, along with the total number of crossings, instances of defecation, freezing behavior, and postures were recorded during this period. Normal animals readily and quickly acclimate to the chamber and try to explore the center area of the squares."}},
  "note": "Marks after values point to notes of the source that are not given here.",
  "data": [
    {"smiles": "COc1cc(CC/C=C/C(=O)CCc2ccc(O)c(OC)c2)ccc1O", "note": "[Gingerenone A]", "values": [
      {"measurement": "IL-1β", "setting": "IL-1β; 5 mg/kg", "result": 97.92, "unit": "pg/mL"},
      {"measurement": "IL-1β", "setting": "IL-1β; 10 mg/kg", "result": "84.90* pg/ml"},
      {"measurement": "IL-1β", "setting": "IL-1β; 20 mg/kg", "result": "80.65** pg/ml"},
      {"measurement": "IL-1β (in words)", "setting": "IL-1β; AlCl3 model, Table 9", "result": "significantly reduced"},
      {"measurement": "Apolipoprotein E", "setting": "Apolipoprotein E; 5 mg/kg", "result": "7.47 ± 0.054", "unit": "ng/mL"},
      {"measurement": "Apolipoprotein E", "setting": "Apolipoprotein E; 10 mg/kg", "result": "7.08 ± 0.076", "unit": "ng/mL"},
      {"measurement": "Apolipoprotein E", "setting": "Apolipoprotein E; 20 mg/kg", "result": "6.84 ± 0.034", "unit": "ng/mL"},
      {"measurement": "levels of Apolipoprotein E (in words)", "setting": "Apolipoprotein E; AlCl3 model, Table 8", "result": "significantly reduced"},
      {"measurement": "histopathology of frontal cortex", "setting": "[1]; FIG. 5A, 6A, 7A", "result": "intact pyramidal cells having round to oval vesicular nucleus with abundant cytoplasm, neuroglial cells, granular cells and intact blood vessels with degenerated cells [mild to moderate] with dystrophic changes having shrunken and hyperchromatic nuclei and without inflammation"},
      {"measurement": "histopathology of hippocampus (CA1, CA2, CA3)", "setting": "[1]; FIG. 5B-D, 6B-D, 7B-D", "result": "intact architecture consisting of Cornu Ammonis [CA] and dentate gyrus with compact layers of pyramidal cells having vesicular nuclei and moderate cytoplasm without shrinkage and necrosis"},
      {"measurement": "Tau levels in plasma (in words)", "setting": "Tau", "result": "significantly reduced"},
      {"measurement": "No of arm entries", "setting": "Parkinson's disease [2]; 5 mg/kg", "result": "9.37 ± 0.29"},
      {"measurement": "Spontaneous alterations (%)", "setting": "Parkinson's disease [2]; 5 mg/kg", "result": "21.43 ± 1.08", "unit": "%"},
      {"measurement": "No of arm entries", "setting": "Parkinson's disease [2]; 10 mg/kg", "result": "11.57 ± 0.92"},
      {"measurement": "Spontaneous alterations (%)", "setting": "Parkinson's disease [2]; 10 mg/kg", "result": "26.87 ± 1.05", "unit": "%"},
      {"measurement": "No of arm entries", "setting": "Parkinson's disease [2]; 20 mg/kg", "result": "12.09 ± 1.39"},
      {"measurement": "Spontaneous alterations (%)", "setting": "Parkinson's disease [2]; 20 mg/kg", "result": "26.21 ± 0.98", "unit": "%"},
      {"measurement": "working memory in Y-maze (in words)", "setting": "Parkinson's disease [2]; reserpine model, Table 12", "result": "significantly increase the working memory with increase in entries in the different arms with more number of alterations"},
      {"measurement": "Fibrinogen", "setting": "Fibrinogen; 5 mg/kg", "result": "22.80 ± 0.738", "unit": "ng/mL"},
      {"measurement": "Fibrinogen", "setting": "Fibrinogen; 10 mg/kg", "result": "19.05 ± 0.232", "unit": "ng/mL"},
      {"measurement": "Fibrinogen", "setting": "Fibrinogen; 20 mg/kg", "result": "16.65 ± 0.431", "unit": "ng/mL"},
      {"measurement": "fibrinogen (in words)", "setting": "Fibrinogen; AlCl3 model, Table 9", "result": "significantly reduced"},
      {"measurement": "Freezing", "setting": "Parkinson's disease [3]; 5 mg/kg", "result": "15.29 ± 0.35", "unit": "s"},
      {"measurement": "Number of central explorations", "setting": "Parkinson's disease [3]; 5 mg/kg", "result": "12.57 ± 1.05"},
      {"measurement": "Number of squares crossed", "setting": "Parkinson's disease [3]; 5 mg/kg", "result": "21.62 ± 2.47"},
      {"measurement": "Freezing", "setting": "Parkinson's disease [3]; 10 mg/kg", "result": "10.38 ± 0.62", "unit": "s"},
      {"measurement": "Number of central explorations", "setting": "Parkinson's disease [3]; 10 mg/kg", "result": "17.34 ± 1.20"},
      {"measurement": "Number of squares crossed", "setting": "Parkinson's disease [3]; 10 mg/kg", "result": "27.45 ± 2.06"},
      {"measurement": "Freezing", "setting": "Parkinson's disease [3]; 20 mg/kg", "result": "9.02 ± 0.45", "unit": "s"},
      {"measurement": "Number of central explorations", "setting": "Parkinson's disease [3]; 20 mg/kg", "result": "17.27 ± 0.98"},
      {"measurement": "Number of squares crossed", "setting": "Parkinson's disease [3]; 20 mg/kg", "result": "26.26 ± 2.27"},
      {"measurement": "locomotory and exploratory behaviors (in words)", "setting": "Parkinson's disease [3]; reserpine model, Table 11", "result": "significantly improved the behavior"}
    ]}
  ]
}
